According to US20160115540A1, “PRODRUGS AND DRUGS” (Biogen MA Inc., priority 2013, published 2016):
Where a name gives a salt, the structure may show the parent alone.

System: blood and tissues
Test: Transcriptional profiling, multi-dosing regimen, naïve mice: blood and other tissues
Type: in vivo
Details: for Number of differentially expressed genes identified: Cerebellum / Number of differentially expressed genes identified: Lymph Node / Number of differentially expressed genes identified: Whole blood: Table 13: Naïve, Single Dose (so in the source), 12 h after last dosing
Experimental: In vivo, DMF is rapidly metabolized to monomethyl fumarate (MMF). […] Animals were exposed to CO2 and whole blood collected via cardiac puncture. Two 100 μl aliquots of whole blood were collected in 1.5 mL microcentrifuge tubes and snap frozen in liquid nitrogen. Peripheral (liver, spleen, kidney and jejunum) and CNS brain (cerebellum, hippocampus, striatum and cortex) tissues were harvested and snap frozen in liquid nitrogen, with special care taken to collect tissues of similar size and from the same location. All samples were stored at -80° C. until RNA extraction was conducted. For RNA preparation, frozen tissues were placed in 2 mL RNAse-free 96-well blocks with 1.5 mL QIAzol Lysis Reagent (QIAgen) and a 3.2 mm stainless steel bead (BioSpec Products, Bartlesville, Okla.). Tissues were disrupted for four cycles of 45 seconds in a Mini-Beadbeater (Biospec Products). RNA was extracted in chloroform and the aqueous phase was mixed with an equal volume of 70% ethanol. Extracted RNA was applied to RNeasy 96 plates and purified by the spin method according to the manufacturer's protocol (RNeasy 96 Universal Tissue Protocol, QIAgen, Hilden Germany). 50 ul of snap frozen mouse blood was re-suspended in lysis buffer with proteinase K and arrayed into deep-well plates for automated RNA extraction. RNA extractions were completed on […] (Beckman Coulter, Indianapolis, Ind.) using Agencourt RNAdvance Blood kit (Part number A35604) according to the manufacturer's specifications. RNA integrity was assessed using the HT RNA reagent kit (Part number 760410, Caliper Life Sciences, Hopkinton, Mass.) using a LabChip GX (PerkinElmer, Waltham, Mass.). RNA samples with a RQS score of >8.0 were considered high quality for downstream microarray processing. […] Two micrograms of biotin labeled […] probe were hybridized to Affymetrix GeneChip Affymetrix HT_MG-430_PM plate arrays with modified conditions as described in […] et al. Washing and staining of the hybridized arrays were completed as described in the GeneChip Expression analysis technical manual for HT plate arrays using the Genechip® Array Station (Affymetrix, Santa Clara, Calif.) with modifications as described in […] et al. The processed GeneChip® plate arrays were scanned using GeneTitan scanner (Affymetrix, Santa Clara, Calif.). Affymetrix scans were subject to quality control (QC) measures. These tests included a visual inspection of the distribution of raw signal intensities and an assessment of RNA degradation, relative log expression (RLE), and normalized unsealed standard error (NUSE). All sample scans that passed these QC metrics were included in the analysis. All CEL files were subjected to GC-content-based Robust Multi-array Average (GCRMA) normalization (version 2.20.0) (Irizarry R A, et al. Nucleic Acids Res 2003; 31:e15; Li C, et al. Genome Biol 2001; 2:[…]0032). […] Stat Appl Genet Mol Biol 2004; 3:Article3). […] Springer Science+Business Media 2005). Changes in gene expression were studied by applying a linear modeling approach to fit gene expression levels according to the defined groups of samples (e.g. DMF-, MMF-, and Vehicle-treated animals) and Bayesian posterior error analysis as implemented by Smyth (Smyth G K. Stat Appl Genet Mol Biol 2004; 3:Article3). The comparisons considered included: DMF-vs-MMF, DMF-vs-Vehicle, and MMF-vs-Vehicle. […] Very few DEGs are observed in blood and tissues derived from the central nervous system (brain, cerebellum, cortex, striatum, and spinal cord).

[1] = CEREBELLUM, 100DMF-vs-Veh, naïve multidose
[2] = LYMPH NODE, 100DMF-vs-Veh, naïve multidose
[3] = WHOLE BLOOD, 100DMF-vs-100MMF, naïve multidose

COC(=O)/C=C/C(=O)OC [DMF, dimethyl fumarate]
FC (1110020A21Rik 1439574_PM_at, WHOLE BLOOD, 100DMF-vs-Veh): −1.77
FC (8430427H17Rik 1428284_PM_at, WHOLE BLOOD, 100DMF-vs-Veh): −1.73
FC 1110021J02Rik (1419892_PM_at) [1]: 1.54
FC Aox1 (1419435_PM_at) [1]: 1.60
FC Apold1 (1441228_PM_at) [1]: 1.85
FC Cnnm3 (1420481_PM_at) [1]: 1.62
FC Prr15 (1452473_PM_at) [1]: 1.80
FC Rapgef4 (1421622_PM_a_at) [1]: −1.55
FC Tgm2 (1437277_PM_x_at) [1]: 1.51
FC probe 1457266_PM_at (no gene symbol) [1]: 1.51
FC Ccl6 (1420249_PM_s_at) [2]: 1.66
FC Ccl17 (1419413_PM_at) [2]: −1.57
FC Nqo1 (1423627_PM_at) [2]: 1.95
FC Nts (1422860_PM_at) [2]: 2.72
FC (Parm1 1424214_PM_at, WHOLE BLOOD, 100DMF-vs-Veh): −1.68
FC (Pla2g7 1430700_PM_a_at, WHOLE BLOOD, 100DMF-vs-Veh): 1.65
FC (Slc27a2 1416316_PM_at, WHOLE BLOOD, 100DMF-vs-Veh): −2.37
Number of differentially expressed genes identified: Cerebellum (100 mpk DMF-vs-90 mpk MMF): 0
Number of differentially expressed genes identified: Lymph Node (100 mpk DMF-vs-90 mpk MMF): 0
Number of differentially expressed genes identified: Whole blood (100 mpk DMF-vs-90 mpk MMF): 0
Number of differentially expressed genes identified: Cerebellum (100 mpk DMF-vs-Vehicle): 8
Number of differentially expressed genes identified: Lymph Node (100 mpk DMF-vs-Vehicle): 4
Number of differentially expressed genes identified: Whole blood (100 mpk DMF-vs-Vehicle): 5
FC 2610001J05Rik (1448002_PM_x_at) [3]: −4.35
FC 8430408G22Rik (1433836_PM_a_at) [3]: 1.78
FC A730017C20Rik (1437528_PM_x_at) [3]: 1.56
FC Aco1 (1456728_PM_x_at) [3]: 1.56
FC Cadm2 (1435146_PM_s_at) [3]: 1.50
FC Cdk7 (1424257_PM_at) [3]: 1.73
FC Cherp (1436885_PM_a_at) [3]: 1.53
FC Neo1 (1447694_PM_x_at) [3]: −3.98
